From the NIST ThermoML archive (doi:10.1021/acs.jced.5b00985)
± gives the expanded uncertainty stated by the source.

Test: mn = molality of the nth substance listed, in mol/kg
Settings: 100.8 kPa, Liquid, Pycnometric method

mass density (313.15 K, m1 = 0.0946): 1002.1 ± 2 kg/m3
mass density (343.15 K, m1 = 0.2563): 1001.1 ± 2.3 kg/m3
mass density (343.15 K, m1 = 0.2612): 1001.3 ± 2.1 kg/m3
SMILES: [NH4+].[O]=[V](=[O])[O-] [ammonium vanadate] + O
